Consider three compounds from US11040085B2, “Pharmaceutical composition containing F1 polypeptide and/or F3 polypeptide and use thereof” (priority 2016, dated 2021).

For data set [1], the system named is TC-1 cells. The format is cell-based. Particulars: different concentrations, incubated overnight, MTT assay (FIG. 1A-1C). The protocol: More specifically, in the method, 100 μL of 5×10^3 TC-1 cells cultured in a RPMI medium containing 10% of calf serum were added into a 96-well cell culture plate, the F1 polypeptide (FIG. 1A), the F3 polypeptide (FIG. 1B), and control polypeptide P3 (FIG. 1C) with different concentrations were added respectively and incubated overnight in an incubator with 5% of CO2 at 37° C., and the cell proliferation was determined by a MTT assay.
100 μL of 5×10^3 TC-1 cells cultured in a RPMI medium containing 10% of calf serum were added into a 96-well cell culture plate, 5 μg/mL of F1 and/or F3 and control polypeptides P3 and F4 were added respectively and incubated overnight in an incubator with 5% of CO2 at 37° C., and the cell proliferation was determined by a MTT assay.
100 μL of 5×10^3 TC-1 cells cultured in a RPMI medium containing 10% of calf serum were added into a 96-well cell culture plate, 5 μg/mL of F1 and/or F3 and/or Imiquimod were added respectively and incubated overnight in an incubator with 5% of CO2 at 37° C., and the cell proliferation was determined by a MTT assay.

For a further data set, the system named is NP69 cells. Nature of the data set: MTT assay, immortalized normal cells NP69. The format is cell-based. The following applies: different concentrations, incubated overnight, MTT assay (FIG. 1D). The protocol:
Immortalized normal cells NP69 were used in another experiment. More specifically, 100 μL of 5×10^3 NP69 cells cultured in a RPMI medium containing 10% of calf serum were added into a 96-well cell culture plate, the F1 polypeptide, the F3 polypeptide, and control polypeptide P3 (FIG. 1D) with different concentrations were added respectively and incubated overnight in an incubator with 5% of CO2 at 37° C., and the cell proliferation was determined by a MTT assay.
A general note: Formazan colour is commonly taken as a measure of viable cells.

In another data set the test system is IL-6. Nature of the data set: IL-6 level in TC-1 culture solution by ELISA. The class given is cell-based, mouse. Particulars: for change of IL-6 levels with increase of concentration: 5 μg/mL to 10 μg/mL, overnight (FIG. 12A, 12B); for IL-6 level in TC-1 culture solution: 5 μg/mL, overnight, vs untreated solution or P3 polypeptide (FIG. 12A). The protocol: FIGS. 12A and 12B are graphs illustrating IL-6 levels (detected by ELISA) in TC-1 culture solutions treated by 5 μg/mL and 10 μg/mL of the P3 polypeptide, the F1 polypeptide, the F3 polypeptide, and a mixture of F1 and F3 overnight, respectively. […] IL-6 levels were decreased with increase of concentration of the F1 polypeptide, the F3 polypeptide, or the mixture of F1 and F3, which may be resulted from apoptosis of TC-1 cells induced by high concentration of the F1 polypeptide, the F3 polypeptide, or the mixture of F1 and F3.

For data set [2], the system named is TC-1 cells. In words: Interaction of FITC-labeled polypeptide with TC-1 cell (flow cytometry, confocal microscopy). The format is cell-based, mouse. Particulars: 2 μg/mL FITC-labeled polypeptide, flow cytometry (FIG. 5A). The protocol: The separated protein was digested by trypsin, polypeptides produced from the digestion was labeled by iTRAQ 4-plex reagents, and the labeled polypeptides were quantitatively analyzed by using a system combining a nano high performance liquid chromatography and a triple time of flight mass spectrometer. […] Besides, the F3 polypeptide and a control polypeptide P3 were labeled by fluorescent dye fluorescein isothiocyanate (FITC), incubated together with TC-1 cells for different periods, and repeatedly washed, thereafter a fluorescence intensity of FITC in the TC-1 cell was detected by a flow cytometry (FIG. 5A).
1000 μL of 5×10^5 TC-1 cells cultured in a RPMI medium containing 10% of calf serum were added into a 24-well cell culture plate, 2 μg/mL of the F3 polypeptide labeled by FITC was added into the cells being incubated, cells at different time points of the incubation were collected and washed with PBS buffer solution, and then the relationship between the F3 polypeptide and TC-1 cell was observed by a flow cytometer (FIG. 5A) or a confocal microscopy (FIG. 5B).
A general note: Flow cytometry measures light scatter and fluorescence of single cells or particles in a stream.

Data set [3] relates to TC-1 cells. Nature of the data set: Stability in vitro (Tests 1-3), MTT assay on TC-1 cells. The format is cell-based, mouse. Particulars: for inhibiting effect on growth of TC-1 cells at 72th hour: Test 1, 10 μg/ml, incubated 72 hours (FIG. 10A); for activity after being prepared and stored for 7 days: Test 2, stored at minus 20° C. before using, 10 μg/ml, 24 hours incubation (FIG. 10B); for activity in PBS with a pH value of 5.5: Test 3, 10 μg/ml; for activity in PBS with a pH value of 5.5 / activity in PBS heated at 100° C.: 24 hours incubation (FIG. 10C); for activity in PBS heated at 100° C.: Test 3, PBS heated 10 minutes at 100° C. before using. The protocol:
RPMI medium containing 10% of calf serum and 5×10^3 TC-1 cells were added into a 96-well cell culture plate; 10 μg/ml of the F1 polypeptide, the F3 polypeptide, and a mixture of F1 and F3 in a ratio of 1:1 were added respectively into the medium and incubated for 72 hours in an incubator with 5% of CO2 at 37° C., and the cell proliferations at 24th hour, 48th hour, and 72th hour were determined respectively by the MTT assay.
The steps in the Test 2 were substantially the same as those in the Test 1, except that the F1 polypeptide and the F3 polypeptide which had been prepared and stored for 0, 1, 3, 5, and 7 days at minus 20° C. respectively before using were added into the medium, and the incubation was performed for 24 hours.
The steps in the Test 3 were substantially the same as those in the Test 1, except that the pH value of the phosphate buffer saline (PBS) in the medium was changed or the PBS is heated for 10 minutes at 100° C. before using, and the incubation was performed for 24 hours. Referring to FIG. 10C, it can be seen that the F1 polypeptide and the F3 polypeptide were still active even in the PBS with a pH value of 5.5 or heated at 100° C.

The test system of another data set is Hela cells. Nature of the data set: MTT assay, growth of human cervical carcinoma cells (HELA) in vitro. The class given is cell-based. The following applies: different dosages, overnight, MTT assay (FIG. 7).
A further data set deals with condyloma acuminate. The following applies: topical application of 5% emulsion; cited from earlier work.
The subject of a further data set is tumor. The following applies: M. A. Apponyi, et al., Peptides, 2004, 25, 1035; cited from earlier work.

For “F3 polypeptide: polypeptide of SEQ ID NO: 2, sequence found in tree frog secretion, made by solid phase peptide synthesis; Caerin polypeptide (GLFGVLGSIAKHLLPHVVPVIAEKL; the sequence is synthesized)”, in the data set with TC-1 cells [1], the “inhibiting effect on growth of TC-1 cells” value is “obvious inhibiting effects”. Besides, the “inhibiting effect on NP69 cells” value in the data set with NP69 cells is listed as “no inhibiting effect”. In the data set on IL-6, the “change of IL-6 levels with increase of concentration” value is given as “decreased” and the “IL-6 level in TC-1 culture solution” value is listed as “significantly higher”. In the data set on TC-1 cells [2], the “time at which FITC was found in TC-1 cell” value was 15 min and the “time of peak fluorescence intensity of FITC in TC-1 cell” value was 2 h. In addition, in the data set with TC-1 cells [3], the “inhibiting effect on growth of TC-1 cells at 72th hour” value is listed as “significant inhibiting effects”; the “activity after being prepared and stored for 7 days” value is reported as “not reduced”; the “activity in PBS with a pH value of 5.5” value was “still active”; the “activity in PBS heated at 100° C.” value is “still active”.

For `CC(C)Cn1cnc2c(N)nc3ccccc3c21` [Imiquimod], in the data set on Hela cells, the “inhibiting effect on growth of Hela cells in vitro” value was “inhibiting effect”. In the data set with condyloma acuminate, the recurrence rate entry is listed as “about 10%”.

“F1 polypeptide: polypeptide of SEQ ID NO: 1, sequence found in tree frog secretion, made by solid phase peptide synthesis; Caerin polypeptide (GLLSVLGSVAKHVLPHVVPVIAEHL; the sequence is synthesized)”: the effect on tumor result in the data set with tumor was “inhibiting effect on tumor”. In the data set with TC-1 cells [1], the “inhibiting effect on growth of TC-1 cells” value was “obvious inhibiting effects”. For the same compound, the “inhibiting effect on NP69 cells” value in the data set with NP69 cells is “no inhibiting effect”. In the data set on IL-6, the “change of IL-6 levels with increase of concentration” value is “decreased” and the “IL-6 level in TC-1 culture solution” value was “significantly higher”. Further, in the data set on TC-1 cells [3], the “inhibiting effect on growth of TC-1 cells at 72th hour” value was “significant inhibiting effects”; the “activity after being prepared and stored for 7 days” value was “not reduced”; the “activity in PBS with a pH value of 5.5” value is reported as “still active”; the “activity in PBS heated at 100° C.” value is reported as “still active”.
